Test results from PubChem BioAssay (NCI).
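Assay format: 96-well plates, 48-hour exposure. GI50 = concentration required for 50% inhibition of growth. TGI denotes the concentration required for complete inhibition of growth.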

How the values were obtained:
Assay in all cases: inhibition of tumour cell growth, NCI panel, 48 h
PC-3 prostate = system: PC-3 prostate
BT-549 breast = system: BT-549 breast
RXF 393 renal = system: RXF 393 renal
IGROV1 ovarian = system: IGROV1 ovarian
K-562 leukemia = system: K-562 leukemia
T-47D breast = system: T-47D breast
HCC-2998 colon = system: HCC-2998 colon
SR leukemia = system: SR leukemia
DLD-1 colon = system: DLD-1 colon
DMS 114 small cell lung = system: DMS 114 small cell lung
SNB-78 CNS = system: SNB-78 CNS
M19-MEL melanoma = system: M19-MEL melanoma

SMILES	TGI (PC-3 prostate) [µM]	TGI (BT-549 breast) [µM]	TGI (RXF 393 renal) [µM]	TGI (IGROV1 ovarian) [µM]	TGI (K-562 leukemia) [µM]	TGI (T-47D breast) [µM]	TGI (HCC-2998 colon) [µM]	TGI (SR leukemia) [µM]	GI50 (PC-3 prostate) [µM]	GI50 (BT-549 breast) [µM]	GI50 (K-562 leukemia) [µM]	GI50 (T-47D breast) [µM]	GI50 (HCC-2998 colon) [µM]	GI50 (SR leukemia) [µM]	TGI (DLD-1 colon) [µM]	TGI (DMS 114 small cell lung) [µM]	TGI (SNB-78 CNS) [µM]	TGI (M19-MEL melanoma) [µM]
N#Cc1nc(C#N)n(S(=O)(=O)c2ccccc2)c1NS(=O)(=O)c1ccccc1	> 100	> 100	> 100	> 100	> 100	> 100	> 100	> 100	–	–	–	–	–	–	–	–	–	–
COc1cc(CNc2nc3ccccc3nc2C(=O)O)cc(OC)c1OC	> 100	> 100	> 100	> 100	> 100	> 100	> 100	> 100	–	–	–	–	–	–	–	–	–	–
CCN(CC)C1Oc2cc3c(cc2C(c2cccc(OC)c2OC)C1C)OCO3 (configuration not stated)	24.4	23.6	11.8	29.3	14.4	28.5	25.8	3.3	–	–	–	–	–	–	–	–	–	–
Cc1cc2c(cc1C)[n+](=O)c(C(=O)c1ccccc1)c(C(F)(F)F)n2[O-]	9.19	23.9	12.9	4.02	9.14	5.08	–	2.9	–	–	–	–	–	–	–	–	–	–
CCCc1[nH]c2ccccc2c1-c1c(CCC)[nH]c2ccccc12	23.4	35.6	37.6	32.4	> 100	–	42.1	> 100	–	–	–	–	–	–	–	–	–	–
C=CCC1(C)CCCN(Cc2ccccc2)C1=O (configuration not stated)	> 10	> 10	> 10	3.41	> 10	> 10	> 10	> 10	–	–	–	–	–	–	–	–	–	–
CCN(CC)c1nnc(CCCCCCCCc2nnc(N(CC)CC)o2)o1	> 100	> 100	> 100	> 100	> 100	–	–	–	–	–	–	–	–	–	–	–	–	–
COc1cccc(/N=N/C(=NNC(=O)c2ccc(C)cc2)c2ccc(N(C)C)cc2)c1	> 100	> 100	–	> 100	> 100	> 100	> 100	> 100	–	–	–	–	–	–	–	–	–	–
COc1ccc(Nc2ccc([N+](=O)[O-])cc2[N+](=O)[O-])cc1CN(CCCl)CCCl	9.59	3.96	–	–	18.9	26.4	6.9	79.5	2.04	1.41	2.47	2.6	2.15	0.378	–	–	–	–
O=[N+]([O-])c1ccc(C(O)(C#CCN2CCCC2)c2ccccc2)cc1 (configuration not stated)	> 100	> 100	> 100	> 100	42.6	98.9	35.8	44.2	–	–	–	–	–	–	–	–	–	–
CC[C@@]1(O)C(=O)OCc2c1cc1n(c2=O)Cc2c-1nc1ccccc1c2/C=N\NC(=O)C(N)CCSC (some centres not stated)	> 100	–	–	5.63	> 100	–	5.26	< 0.0397	–	–	–	–	–	–	–	–	–	–
COC(=O)C(=O)Cc1nc2ccccc2o1	–	–	> 100	–	> 100	–	> 100	> 100	–	–	–	–	–	–	> 100	> 100	> 100	> 100
N#CCCC1(CCC#N)CCCCCCCCC(CCC#N)(CCC#N)C(O)C1O (configuration not stated)	> 100	–	86.9	> 100	> 100	> 100	> 100	–	–	–	–	–	–	–	–	–	–	–
